Tests used:
[1] = target: T1, ETA (Sus scrofa, UniProt Q29010); experiment: Endothelin binding inhibition experiment, 125I-endothelin-1 binding, ETA, membranes from smooth muscles of porcine thoracic aorta; conditions: 125I-endothelin-1 2×10^-11 M, 2 hours at 25° C., pH 7.4
T1 construct: crude receptor membrane samples (ETA) from smooth muscles of porcine thoracic aorta; from tissue; host or cells: porcine thoracic aorta smooth muscle, endothelium removed; crude membranes
T1 sequence (Q29010 21-427): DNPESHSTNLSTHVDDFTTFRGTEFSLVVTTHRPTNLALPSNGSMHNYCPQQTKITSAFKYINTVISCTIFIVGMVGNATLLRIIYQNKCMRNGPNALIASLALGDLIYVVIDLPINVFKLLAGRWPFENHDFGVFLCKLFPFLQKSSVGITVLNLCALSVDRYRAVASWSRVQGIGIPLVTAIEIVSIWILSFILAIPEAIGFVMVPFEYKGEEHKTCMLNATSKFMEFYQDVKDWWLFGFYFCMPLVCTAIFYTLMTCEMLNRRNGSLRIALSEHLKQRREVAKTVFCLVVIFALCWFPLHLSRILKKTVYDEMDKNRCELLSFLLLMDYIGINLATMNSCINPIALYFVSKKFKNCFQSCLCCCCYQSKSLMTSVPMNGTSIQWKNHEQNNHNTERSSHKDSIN
Experimental: (§1) Endothelin binding inhibition experiment
Preparation of crude receptor membrane samples (ETA) from smooth muscles of porcine thoracic aorta:
Porcine thoracic aorta which was separated from the fatty tissue and then was removed endothelium with gauze was minced, and then homogenized in three times the volume of Tris-HCl buffer (pH 7.4) (buffer A) containing 0.25M sucrose, 3 mM ethylenediaminetetraacetic acid, 5 μg/ml of aprotinin, 10 μg/ml of pepstatin A, 10 μg/ml of leupeptin, and 0.1 μM p-amidinophenylmethanesulfonyl fluoride. After centrifugation for 30 minutes at 1,000×g, the supernatant was further centrifuged for 30 minutes at 100,000×g. The pellets were suspended in buffer A, and recentrifuged for 30 minutes at 100,000×g. The pellets were suspended in buffer A and the suspension was stored at -80° C. ^125 I-Endothelin-1 binding assay:
The thus-obtained membrane sample (1 μl) was incubated together with ^125 I-endothelin-1 (2×10^-11 M) and various concentrations of the compounds, for 2 hours at 25° C., in 250 μl in total volume of 50 mM Tris-HCl buffer (pH 7.4) containing 0.5% bovine serum albumin. The incubated mixture was filtered by use of HVPP filters (pore size 0.45 μm, product of Milipore). The filters were washed with cold buffer A four times, and then measured with a gamma-ray counter (Aroka Autowell Gamma System ARC-251). Preparation of crude receptor membrane samples (ETB) from rat brain and assay of ^125 I endothelin-1: […]

[2] = target: T2, ETB (Rattus norvegicus, UniProt P21451); experiment: Endothelin binding inhibition experiment, 125I-endothelin-1 binding, ETB, membranes from rat brain; conditions: 125I-endothelin-1 2×10^-11 M, 2 hours at 25° C., pH 7.4
T2 construct: Rat brain tissue was minced, and a crude receptor membrane sample was prepared; from tissue; host or cells: rat brain; crude membranes
T2 sequence (P21451 27-442): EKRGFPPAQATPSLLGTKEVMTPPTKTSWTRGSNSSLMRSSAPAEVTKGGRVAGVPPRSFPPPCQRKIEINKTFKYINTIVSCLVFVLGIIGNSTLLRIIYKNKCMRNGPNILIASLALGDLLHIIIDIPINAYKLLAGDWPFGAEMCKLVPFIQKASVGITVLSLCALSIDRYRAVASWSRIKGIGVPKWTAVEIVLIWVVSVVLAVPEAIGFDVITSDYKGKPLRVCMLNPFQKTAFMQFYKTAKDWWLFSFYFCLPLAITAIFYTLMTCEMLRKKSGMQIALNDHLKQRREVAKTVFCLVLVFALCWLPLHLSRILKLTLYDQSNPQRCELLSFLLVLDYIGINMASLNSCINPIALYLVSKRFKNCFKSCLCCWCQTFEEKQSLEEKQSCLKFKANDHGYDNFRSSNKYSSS
Experimental: as §1
The thus-obtained membrane sample (1 μl) was incubated together with ^125 I-endothelin-1 (2×10^-11 M) and various concentrations of the compounds, for 2 hours at 25° C., in 250 μl in total volume of 50 mM Tris-HCl buffer (pH 7.4) containing 0.5% bovine serum albumin. The incubated mixture was filtered by use of HVPP filters (pore size 0.45 μm, product of Milipore). The filters were washed with cold buffer A four times, and then measured with a gamma-ray counter (Aroka Autowell Gamma System ARC-251). Preparation of crude receptor membrane samples (ETB) from rat brain and assay of ^125 I endothelin-1:
Rat brain tissue was minced, and a crude receptor membrane sample was prepared in a manner similar to that used in the aforementioned case of porcine thoracic aorta. Also, ^125 I-endothelin-1 assay was performed in the same manner as described above.

| Compound | IC50 [1] | IC50 [2] |
| --- | --- | --- |
| COc1ccccc1Oc1c(NS(=O)(=O)c2ccc(C(C)(C)C)cc2)nc(N2CCOCC2)nc1OCCC(=O)Nc1ccccc1C(C)C [Example 2, N-(2-isopropylphenyl)-3-[6-(4-t-butylphenylsulfonylamino)-5-(2-methoxyphenoxy)-2-morpholino-4-pyrimidinyloxy]propionamide] | 63 nM | 0.86 nM |
| COc1ccccc1Oc1c(NS(=O)(=O)c2ccc(C(C)(C)C)cc2)nc(N2CCN(C=O)CC2)nc1OCCC(=O)Nc1ccccc1C(C)C [Example 13, N-(2-isopropylphenyl)-3-[6-(4-t-butylphenylsulfonylamino)-2-(4-formylpiperazinyl)-5-(2-methoxyphenoxy)-4-pyrimidinyloxy]-propionamide] | 68 nM | 5.4 nM |
| COc1ccccc1Oc1c(NS(=O)(=O)c2ccc(C(C)(C)C)cc2)nc(N2CCOCC2)nc1OCCC(=O)Nc1ccccn1 [Example 3, N-(2-pyridyl)-3-[6-(4-t-butylphenylsulfonylamino)-5-(2-methoxyphenoxy)-2-morpholino-4-pyrimidinyloxy]propionamide] | 32 nM | 29 nM |
| COc1ccccc1Oc1c(NS(=O)(=O)c2ccc(C(C)(C)C)cc2)nc(N2CCOCC2)nc1OCCC(=O)OCc1ccccc1 [Example 23, benzyl 3-[6-(4-t-butylphenylsulfonylamino)-5-(2-methoxyphenoxy)-2-morpholino-4-pyrimidinyloxy]propionate] | 240 nM | 5.1 nM |

— US5883092A, “Pyrimidine derivatives as endothelin antagonists” (Kowa Co., Ltd., priority 1995, dated 1999)
